Patent US7790687B2, “Treatment for neurodegeneration” (Proximagen Ltd., priority 2005, dated 2010)
“Also recorded” adds a separate entry of the source.

Legend:
[1] = tested on: TH positive cells in the rat SN; assay: Intranigral LPS injection, TH immunoreactive cell number in the SN; format: in vivo; settings: compared to contralateral intact SN and to saline controls, present at 24, 48, 72 and 120 hrs
Protocol: (§1) Male Wistar rats (250-280 g) were obtained from Tuck (Essex, UK) and were kept on a 12 hour light/dark cycle at 21-24° C. with 55-65% humidity with unrestricted access to rat chow and water. All experiments were conducted according to the guidelines set out in the UK Animals (Scientific Procedures) Act 1986 and approved by the King's College London Ethics Committee.
(§2) Animals were randomly divided into 4 groups (n=16 in each group) anaesthetised with halothane (4% in 5%O2:95%CO2), placed in a stereotaxic frame (Kopf Instruments) with the incisor bar set at −3.3 mm and anaesthesia maintained using halothane (1.5-2%). The heads were shaved, scalp cut, skull exposed and a burr hole drilled on the left side of the skull. The following co-ordinates for the SN were used: AP: −4.8 mm, L: +2.0 mm, V: +8.0 mm (Paxinos & Watson, 1986). A 10 μl Hamilton syringe was used and 2 μl of LPS (n=8) (5 mg/ml dissolved in 0.9% sterile saline: E. coli 055:B5; Calbiochem, Nottingham, UK) or 2 μl of vehicle (0.9% sterile saline; n=8) was delivered over a period of 2 minutes. The needle was left in situ for a further 2 minutes before being slowly withdrawn. The wound was closed using Ethicon sutures and the animals allowed to recover from anaesthesia until freely moving before being returned to their home cages. […]

[2] = tested on: OPN immunoreactivity in the rat SN; assay: Intranigral LPS injection, OPN immunoreactivity in the SN; format: in vivo; settings: compared to saline treated animals
Protocol: as §1, §2

[3] = tested on: TH positive cells in primary ventral mesencephalic cultures; assay: Survival of TH positive cells in primary ventral mesencephalic cultures without MPP+ treatment; format: cell-based, rat; settings: 24 hrs incubation, no MPP+ (no toxin), n=3
Protocol: (§3) Primary ventral mesencephalic cell cultures: Primary cell cultures were prepared by dissecting out the ventral mesencephalon from E14 rat foetuses. The dissected tissue was pooled and incubated with 0.1% Trypsin solution. This solution was then removed and replaced with Dulbecco's modified Eagles medium (DMEM) containing 10% foetal bovine serum (FBS) and 0.25% penicillin-streptomycin-neomycin (PSN), and the tissue centrifuged for 1 minute at 200 rpm at room temperature. The supernatant was then removed, fresh medium was added and the tissue mechanically dissociated using increasing fine bore fire-polished Pasteur pipettes. Cell density was assessed using a haematocytometer and cells were plated in culture medium containing 10% FBS and 0.25% PSN at a density of 1-1.5×10^5 on sterile coverslips coated with 0.01 % poly-D-lysine. After 4 days the culture medium was removed and replaced with fresh serum free DMEM prior to treatment with MPP+ or OPN. […]
(§4) Tyrosine hydroxylase (TH) immunohistochemistry: The culture medium was removed from the cells and the coverslips were fixed in 4% paraformaldehyde prior to peroxidase detection of TH using the ABC immunohistochemical method. Coverslips were mounted and examined using a Zeiss Axiophot microscope at a 50× magnification and the number of TH positive cells on each coverslip was manually counted in four fields chosen at random.(total area: 8 mm^2).

[4] = tested on: TH positive cells in primary ventral mesencephalic cultures; assay: Survival of TH positive cells in primary ventral mesencephalic cultures, pre-treatment followed by MPP+; format: cell-based, rat; settings: for effect on survival/death of TH positive cells: 24 hrs pre-treatment, n=3; for concentration of maximal efficacy (TH cell survival): lowest concentration used
Protocol: Primary ventral mesencephalic cell cultures: Primary cell cultures were prepared by dissecting out the ventral mesencephalon from E14 rat foetuses. The dissected tissue was pooled and incubated with 0.1% Trypsin solution. This solution was then removed and replaced with Dulbecco's modified Eagles medium (DMEM) containing 10% foetal bovine serum (FBS) and 0.25% penicillin-streptomycin-neomycin (PSN), and the tissue centrifuged for 1 minute at 200 rpm at room temperature. The supernatant was then removed, fresh medium was added and the tissue mechanically dissociated using increasing fine bore fire-polished Pasteur pipettes. Cell density was assessed using a haematocytometer and cells were plated in culture medium containing 10% FBS and 0.25% PSN at a density of 1-1.5×10^5 on sterile coverslips coated with 0.01 % poly-D-lysine. After 4 days the culture medium was removed and replaced with fresh serum free DMEM prior to treatment with MPP+ or OPN. Each treatment was done in triplicate per experiment and each series of experiments was repeated a further 2 times to give a final n=3.
Manipulation of the OPN system: Cultures were incubated with one of the following treatments for 24 hrs prior to MPP+ administration (either 10 μM or 2 μM MPP+): OPN protein (1, 5, 10, 25, 50 & 100 ng/ml), anti-OPN antibody (26.5, 53, 265, 530 ng/ml and 1.325, 2.65 μg/ml), anti-αv or anti-β3 integrin receptor subunit antibody (0.02, 0.04, 0.2, 0.4, 1 & 2 μg/ml). Control groups received no MPP+ treatment.
as §4

[5] = tested on: TH positive cells in primary ventral mesencephalic cell cultures; assay: MPP+ dose response on TH positive cell number in primary ventral mesencephalic cell cultures; format: cell-based, rat; settings: 24 hrs MPP+ exposure, 0.1-10 μM, n=3; read-out: EC50, dopaminergic (TH positive) cell death
Protocol: as §3
MPP+ dose response: MPP+ was dissolved in sterile PBS and the primary cell cultures were incubated for 24 hrs with one of the following concentrations of MPP+: 0.1, 0.5, 1, 2, 5, 10 μM MPP+ or vehicle (PBS). […] An EC50 was calculated (3.076±0.56) and a high (10 μM) or low (2 μM) MPP+ concentration was used to investigate the role of OPN in dopaminergic cell survival. […]

lipopolysaccharide [LPS]
decrease in TH positive cells in the LPS injected SN [1]: 70% | increase in OPN immunoreactivity [2]: 14 fold

OPN protein fragment: 15 amino acid fragment of rat osteopontin containing the RGD αvβ3 integrin binding site and the α4 and α9 integrin subunit binding sites (TVDVPDGRGDSLAYG; listed as Rattus norvegicus)
effect on viability of TH positive cells [3]: not found to affect the viability; also recorded: no effect | effect on survival/death of TH positive cells ([4]; then 2 μM MPP+ for 24 hrs): almost completely protected dopaminergic cells; also recorded: increased TH cell survival | effect on survival/death of TH positive cells ([4]; then 10 μM MPP+ for 24 hrs): almost completely protected dopaminergic cells; also recorded: increased survival of TH positive cells | concentration of maximal efficacy (TH cell survival) ([4]; then 2 μM MPP+): 1 ng/mL | concentration of maximal efficacy (TH cell survival) ([4]; then 10 μM MPP+): 1 ng/mL

C[n+]1ccc(-c2ccccc2)cc1 [MPP+]
EC50 [5]: 3.08 ± 0.56 µM
